Reference: patent publication US20090018134A1, “Compounds - 945” (AstraZeneca AB, priority 2007, published 2009)

These compounds were tested against T1, mTOR (Homo sapiens, UniProt P42345) (assay: In Vitro mTOR Kinase Assay (Echo), Test (a)(ii)). Conditions: read-out: mTOR Kinase Assay (Echo).
T1 construct: FLAG; made in house
Assay type: biochemical
Procedure, shortened: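 Enzyme: HEK293-expressed, FLAG-purified mTOR C-terminal fragment (aa 1362-2549). Rxn 2 h RT with biotinylated peptide, stopped with EDTA 50 mM/BSA/Tris pH 7.4. Detection: T389 phospho-antibody AlphaScreen, 680 nm excitation. IC50.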

T1 sequence (P42345 1362-2549): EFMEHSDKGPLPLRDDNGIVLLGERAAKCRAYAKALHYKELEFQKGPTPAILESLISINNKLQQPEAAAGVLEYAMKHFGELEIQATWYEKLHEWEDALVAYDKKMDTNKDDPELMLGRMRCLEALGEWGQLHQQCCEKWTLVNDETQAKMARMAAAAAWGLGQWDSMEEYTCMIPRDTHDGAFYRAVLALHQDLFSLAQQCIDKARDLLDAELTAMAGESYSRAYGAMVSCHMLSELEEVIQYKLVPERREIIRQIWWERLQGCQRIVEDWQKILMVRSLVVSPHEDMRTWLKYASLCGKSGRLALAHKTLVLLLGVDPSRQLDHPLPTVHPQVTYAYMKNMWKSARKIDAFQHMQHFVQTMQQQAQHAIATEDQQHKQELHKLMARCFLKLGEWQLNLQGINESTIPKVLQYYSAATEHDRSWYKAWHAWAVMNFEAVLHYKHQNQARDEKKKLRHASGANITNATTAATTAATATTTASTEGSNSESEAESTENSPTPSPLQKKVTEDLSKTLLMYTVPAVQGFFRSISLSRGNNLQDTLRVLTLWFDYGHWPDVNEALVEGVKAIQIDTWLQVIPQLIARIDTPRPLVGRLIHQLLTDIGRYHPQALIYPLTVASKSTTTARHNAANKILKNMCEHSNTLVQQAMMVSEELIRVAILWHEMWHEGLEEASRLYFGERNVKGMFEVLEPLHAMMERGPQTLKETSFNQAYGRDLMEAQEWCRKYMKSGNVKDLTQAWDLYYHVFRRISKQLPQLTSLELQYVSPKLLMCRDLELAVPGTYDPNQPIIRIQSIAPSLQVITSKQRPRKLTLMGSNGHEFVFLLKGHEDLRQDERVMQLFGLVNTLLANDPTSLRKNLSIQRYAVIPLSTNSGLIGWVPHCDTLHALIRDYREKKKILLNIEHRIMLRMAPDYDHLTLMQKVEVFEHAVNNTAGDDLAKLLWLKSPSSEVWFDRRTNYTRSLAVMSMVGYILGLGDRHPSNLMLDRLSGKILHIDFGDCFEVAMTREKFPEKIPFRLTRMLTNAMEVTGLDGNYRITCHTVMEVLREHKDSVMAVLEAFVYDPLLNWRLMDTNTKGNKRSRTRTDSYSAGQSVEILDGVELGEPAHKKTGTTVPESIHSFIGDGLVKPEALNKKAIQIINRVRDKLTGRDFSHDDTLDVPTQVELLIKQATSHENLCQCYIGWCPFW

| IC50 [nM] | SMILES |
| --- | --- |
| 6.12 | CC(C)CNC(=O)Nc1ccc(-c2nc(N3CCOC[C@@H]3C)cc(C3(S(=O)(=O)c4ccncc4)CC3)n2)cc1 [Example 6b, 1-[4-[4-[(3S)-3-methylmorpholin-4-yl]-6-(1-pyridin-4-ylsulfonylcyclopropyl)pyrimidin-2-yl]phenyl]-3-(2-methylpropyl)urea] |
| 5.91 | CNC(=O)Nc1ccc(-c2nc(N3CCOC[C@@H]3C)cc(C3(S(=O)(=O)c4ccccc4C(F)(F)F)CC3)n2)cc1 [Example 10i, 3-methyl-1-[4-[4-[(3S)-3-methylmorpholin-4-yl]-6-[1-[2-(trifluoromethyl)phenyl]sulfonylcyclopropyl]pyrimidin-2-yl]phenyl]urea] |
| 174 | C[C@H]1COCCN1c1cc(C2(S(=O)(=O)c3ccccc3C(F)(F)F)CC2)nc(-c2ccc(NC(=O)NCCN(C)C)cc2)n1 [Example 10f, 3-(2-dimethylaminomethyl)-1-[4-[4-[(3S)-3-methylmorpholin-4-yl]-6-[1-[2-(trifluoromethyl)phenyl]sulfonylcyclopropyl]pyrimidin-2-yl]phenyl]urea] |

The remaining lines, values behind:

| SMILES | IC50 [nM] |
| --- | --- |
| CN(C)CCNC(=O)Nc1ccc(-c2nc(N3CCOCC3)cc(C3(S(C)(=O)=O)CCC3)n2)cc1 [Example 12s, 3-(2-dimethylaminoethyl)-1-[4-[4-(1-methylsulfonylcyclobutyl)-6-morpholin-4-ylpyrimidin-2-yl]phenyl]urea] | 134 |
| CCNC(=O)Nc1ccc(-c2nc(N3CCOC[C@@H]3C)cc(C3(S(=O)(=O)C4CCCC4)CC3)n2)cc1 [Example 9e] | 1.87 |
| CC(C)CNC(=O)Nc1ccc(-c2nc(N3CCOC[C@@H]3C)cc(C3(S(=O)(=O)C(C)C)CC3)n2)cc1 [Example 7i, 1-[4-[4-[(3S)-3-methylmorpholin-4-yl]-6-(1-propan-2-ylsulfonylcyclopropyl)pyrimidin-2-yl]phenyl]-3-(2-methylpropyl)urea] | 18.2 |

Same assay, conditions: table of enzyme assay Test (a)(ii); read-out: Test (a)(ii) IC50

| IC50 [nM] | SMILES |
| --- | --- |
| 1.31 | C[C@H]1COCCN1c1cc(C2(S(=O)(=O)c3ccccc3)CC2)nc(-c2ccc(NC(=O)Nc3ncns3)cc2)n1 [Example 36bq, 1-[4-[4-[1-(benzenesulfonyl)cyclopropyl]-6-[(3S)-3-methylmorpholin-4-yl]pyrimidin-2-yl]phenyl]-3-(1,2,4-thiadiazol-5-yl)urea] |
| 5.22 | CCNC(=O)Nc1ccc(-c2nc(N3CCOC[C@@H]3C)cc(C3(S(=O)(=O)c4c(F)cccc4F)CC3)n2)cc1 [Example 86a, 1-[4-[4-[1-(2,6-difluorophenyl)sulfonylcyclopropyl]-6-[(3S)-3-methylmorpholin-4-yl]pyrimidin-2-yl]phenyl]-3-ethylurea] |
| 14.7 | C[C@H]1COCCN1c1cc(C2(S(=O)(=O)C(C)(C)C)CC2)nc(-c2ccc(NC(=O)Nc3ccccn3)cc2)n1 [Example 18b, 1-[4-[4-(1-tert-butylsulfonylcyclopropyl)-6-[(3S)-3-methylmorpholin-4-yl]pyrimidin-2-yl]phenyl]-3-pyridin-2-ylurea] |
| 40.8 | C[C@H]1COCCN1c1cc(C2(S(=O)(=O)c3ccc(F)c(F)c3)CC2)nc(-c2ccc(NC(=O)NCC(F)F)cc2)n1 [Example 64m, 3-(2,2-difluoroethyl)-1-[4-[4-[1-(3,4-difluorophenyl)sulfonylcyclo-propyl]-6-[(3S)-3-methylmorpholin-4-yl]pyrimidin-2-yl]phenyl]urea] |
| 23.7 | CCNC(=O)Nc1ccc(-c2nc(N3CCOC[C@@H]3C)cc(C3(S(=O)(=O)c4cc(F)ccc4C)CC3)n2)cc1 [Example 61e, 1-ethyl-3-[4-[4-[1-(5-fluoro-2-methylphenyl)sulfonylcyclopropyl]-6-[(3S)-3-methylmorpholin-4-yl]pyrimidin-2-yl]phenyl]urea] |
| 4.48 | C[C@@H](CO)NC(=O)Nc1ccc(-c2nc(N3CCOC[C@@H]3C)cc(C3(S(=O)(=O)c4ccc(F)cc4)CCC3)n2)cc1 [Example 65d, 1-[4-[4-[1-(4-fluorophenyl)sulfonylcyclobutyl]-6-[(3S)-3-methylmorpholin-4-yl]pyrimidin-2-yl]phenyl]-3-[(2S)-1-hydroxypropan-2-yl]urea] |
| 0.817 | Cc1csc(S(=O)(=O)C2(c3cc(N4CCOC[C@@H]4C)nc(-c4ccc(NC(=O)Nc5ccccn5)cc4)n3)CC2)n1 [Example 25b, 1-[4-[4-[(3S)-3-methylmoprholin-4-yl]-6-[1-[(4-methyl-1,3-thiazol-2-yl)sulfonyl]cyclopropyl]pyrimidin-2-yl]phenyl]-3-pyridin-2-ylurea] |
| 4.37 | C[C@H]1COCCN1c1cc(C2(S(=O)(=O)c3ccc(C#N)cc3)CC2)nc(-c2ccc(NC(=O)NCCO)cc2)n1 [Example 77c, 1-[4-[4-[1-(4-cyanophenyl)sulfonylcyclopropyl]-6-[(3S)-3-methylmorpholin-4-yl]pyrimidin-2-yl]phenyl]-3-(2-hydroxyethyl)urea] |
| 1.53 | C[C@H]1COCCN1c1cc(C2(S(=O)(=O)c3ccccn3)CC2)nc(-c2ccc(NC(=O)Nc3ccc(C(F)(F)F)cc3)cc2)n1 [Example 28i, 1-[4-[4-[(3S)-3-methylmorpholin-4-yl]-6-(1-pyridin-2-ylsulfonylcyclopropyl)pyrimidin-2-yl]phenyl]-3-[4-(trifluoromethyl)phenyl]urea] |
| 1.3 | CNC(=O)Nc1ccc(-c2nc(N3CCOC[C@@H]3C)cc(C3(S(=O)(=O)c4ccccn4)CCC3)n2)cc1 [Example 36ag, 3-methyl-1-[4-[4-[(3S)-3-methylmorpholin-4-yl]-6-(1-pyridin-2-ylsulfonylcyclobutyl)pyrimidin-2-yl]phenyl]urea] |

More lines, now with the values behind:

| SMILES | IC50 [nM] |
| --- | --- |
| CN(C)CCNC(=O)Nc1ccc(-c2nc(N3CCOCC3)cc(C3(S(C)(=O)=O)CCC3)n2)cc1 [Example 12s, 3-(2-dimethylaminoethyl)-1-[4-[4-(1-methylsulfonylcyclobutyl)-6-morpholin-4-ylpyrimidin-2-yl]phenyl]urea] | 117 |
| C[C@H]1COCCN1c1cc(C2(S(C)(=O)=O)CC2)nc(-c2ccc(NC(=S)NCCCO)cc2)n1 [Example 37m, 3-(3-hydroxypropyl)-1-[4-[4-[(3S)-3-methylmorpholin-4-yl]-6-(1-methylsulfonylcyclopropyl)pyri-midin-2-yl]phenyl]thiourea] | 50.6 |
| CN(C)C(=O)C1(c2cc(N3CCOCC3)nc(-c3ccc(NC(=O)NCCO)cc3)n2)CC1 [Example 34, 1-[2-[4-(2-Hydroxyethylcarbamoylamino)phenyl]-6-morpholin-4-ylpyrimidin-4-yl]-N,N-dimethylcyclopropane-1-carboxamide] | 4.05 |
| Cc1csc(S(=O)(=O)C2(c3cc(N4CCOCC4)nc(-c4ccc(NC(=O)NC5CC5)cc4)n3)CC2)n1 [Example 42, 3-Cyclopropyl-1-[4-[4-[1-[(4-methyl-1,3-thiazol-2-yl)sulfonyl]cyclopropyl]-6-morpholin-4-ylpyrimidin-2-yl]phenyl]urea] | 0.705 |
| C[C@H]1COCCN1c1cc(C2(S(C)(=O)=O)CCCC2)nc(-c2ccc(NC(=O)NCCO)nc2)n1 [Example 14q, 3-(2-hydroxyethyl)-1-[5-[4-[(3S)-3-methylmorpholin-4-yl]-6-(1-methylsulfonylcyclopentyl)pyri-midin-2-yl]pyridin-2-yl]urea] | 26.5 |
| C[C@H]1COCCN1c1cc(C2(S(=O)(=O)CCCO)CCCC2)nc(-c2ccc(NC(=O)NCCC#N)cc2)n1 [Example 43h, 3-(2-cyanoethyl)-1-[4-[4-[1-(3-hydroxypropyl-sulfonyl)cyclopen-tyl]-6-[(3S)-3-methylmorpholin-4-yl]pyrimidin-2-yl]phenyl]urea] | 133 |
| C[C@H]1COCCN1c1cc(C2(S(=O)(=O)CCC(C)(C)O)CC2)nc(-c2ccc(NC(=O)NCCO)cc2)n1 [Example 79b, 3-(2-hydroxyethyl)-1-[4-[4-[1-(3-hydroxy-3-methylbutyl)sulfonylcyclopropyl]-6-[(3S)-3-methylmorpholin-4-yl]pyrimidin-2-yl]phenyl]urea] | 10.9 |
| C[C@H]1COCCN1c1cc(C2(S(=O)(=O)c3ccc(Cl)cc3)CCOCC2)nc(-c2ccc(NC(=O)Nc3cnn(C)c3)cc2)n1 [Example 23m, 1-[4-[4-[4-(4-chlorophenyl)sulfonyloxan-4-yl]-6-[(3S)-3-methylmorpholin-4-yl]pyrimidin-2-yl]phenyl]-3-(1-methylpyrazol-4-yl)urea] | 57.7 |
| Cc1nc(C)c(S(=O)(=O)C2(c3cc(N4CCOC[C@@H]4C)nc(-c4ccc(NC(=O)NCCO)cc4)n3)CC2)s1 [Example 78c, 1-[4-[4-[1-[(2,4-dimethyl-1,3-thiazol-5-yl)sulfonyl]cyclopropyl]-6-[(3S)-3-methylmorpholin-4-yl]pyrimidin-2-yl]phenyl]-3-(2-hydroxyethyl)urea] | 20.9 |
| C[C@H]1COCCN1c1cc(C2(S(=O)(=O)CCCO)CC2)nc(-c2ccc(NC(=O)Nc3nccs3)cc2)n1 [Example 36cj, 1-[4-[4-[1-(3-hydroxypropylsulfonyl)cyclopropyl]-6-[(3S)-3-methylmorpholin-4-yl]pyrimidin-2-yl]phenyl]-3-(1,3-thiazol-2-yl)urea] | 3.33 |
| C[C@H]1COCCN1c1cc(C2(S(=O)(=O)CCCO)CCC2)nc(-c2ccc(NC(=S)NCc3ncc[nH]3)cc2)n1 [Example 99c, 1-[4-[4-[1-(3-hydroxypropylsulfonyl)cyclobutyl]-6-[(3S)-3-methylmorpholin-4-yl]pyrimidin-2-yl]phenyl]-3-(1H-imidazol-2-ylmethyl)thiourea] | 239 |
| C[C@H]1COCCN1c1cc(C2(S(=O)(=O)c3ccccn3)CCC2)nc(-c2ccc(NC(=O)NCc3ncc[nH]3)cc2)n1 [Example 36ak, 3-(1H-imidazol-2-ylmethyl)-1-[4-[4-[(3S)-3-methylmorpholin-4-yl]-6-(1-pyridin-2-ylsulfonylcyclobutyl)pyrimidin-2-yl]phenyl]urea] | 2.45 |
| Cc1nc(C)c(S(=O)(=O)C2(c3cc(N4CCOC[C@@H]4C)nc(-c4ccc(NC(=O)NCCF)cc4)n3)CC2)s1 [Example 78e, 1-[4-[4-[1-[(2,4-dimethyl-1,3-thiazol-5-yl)sulfonyl]cyclopropyl]-6-[(3S)-3-methylmorpholin-4-yl]pyrimidin-2-yl]phenyl]-3-(2-fluoroethyl)urea] | 23.9 |
| CCS(=O)(=O)C1(c2cc(N3CCOC[C@@H]3C)nc(-c3ccc(NC(=S)NCCCO)cc3)n2)CC1 [Example 88c, 1-[4-[4-(1-ethylsulfonylcyclopropyl)-6-[(3S)-3-methylmorpholin-4-yl]pyrimidin-2-yl]phenyl]-3-(3-hydroxypropyl)thiourea] | 47 |
